The values that follow come from patent US20220031652A1, “USE OF AN ORGANOMETALLIC COMPOUND AS A DNA-DEMETHYLATING AGENT” (UNIVERSITE DE LORRAINE, priority 2018, published 2022).

Molecules are shown by their SMILES.

The test system of this test is MDA-MB231, T47D, T47D R+ doxo, U251 and U87 cells. Put plainly: Crystal violet proliferation test at 2 μM, 48 h or 72 h. In kind it is cell-based.

Procedure: Each cell line is seeded in 96-well plates (100 μL medium/well) according to the following conditions:
After 48 h or 72 h of treatment, the medium of each well is removed then a washing is carried out with 100 μL of PBS.
The cells are then fixed with 100 μL of paraformaldehyde 4% for 20 minutes, followed by two washings with 500 μL of PBS.
The percentage of cells adhered is highlighted by a crystal violet coloration.
100 μL of crystal violet at 0.1% (1/5 dilution in H2O of the stock solution: 0.5% crystal violet 2% filtered ethanol 0.22 μM) is added in each well.
After 30 minutes of incubation at ambient temperature, the wells are rinsed 3 times with distilled water, then correctly dried by patting on a sheet of absorbent paper.
100 μL of 10% acetic acid is then added to each well.
The plate is stirred until total solubilisation of the crystal violet crystals (around 10 minutes).

Turning to `[Ru+2].c1ccc(-c2cc(-c3ccccn3)nc(-c3ccccn3)c2)cc1.c1ccc(-c2cc(-c3ccccn3)nc(-c3ccccn3)c2)cc1` [Ru], the “inhibition of the proliferation (crystal violet)” value is “does not lead to any inhibition of the proliferation”.
